The values below come from patent US8853246B2 (Dow AgroSciences LLC, priority 2009, dated 2014).

In assay [1] the test system is Green Peach Aphid (Myzus Persicae). The experiment in a line: Insecticidal test for green peach aphid in foliar spray assay (col. MYZUPE). Type of assay: in vivo. As to conditions: Myzus persicae, 72 h, read-out: MYZUPE 200 ppm (Corrected % Control, rating). The method in brief: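 Corrected % control derives from microscope counts of live aphids per plant, treated against diluent-only checks, 3 days after foliar spraying at ~25 °C and 40% RH. Test solution was 200 ppm in 0.025% aqueous Tween 20, applied to both leaf sides of infested cabbage seedlings, four pots each.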

Assay [2] relates to Sweetpotato Whitefly-Crawler (Bemisia Tabaci). In words: Insecticidal test for sweetpotato whitefly-crawler in foliar spray assay (col. BEMITA). The note with it: Bemisia tabaci, read-out: BEMITA 200 ppm (Corrected % Control, rating). Type of assay: in vivo. The method in brief:
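Percent control, Abbott-corrected against diluent-sprayed plants, from microscope counts of live nymphs 8-9 days after treatment. Test solution at 200 ppm in 0.025% aqueous Tween 20 applied to both leaf sides of egg-infested cotton after a 5-6 day hatch period (82° F, 50% RH).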

Structures are written as SMILES. Where two headings read alike, the source gives them in different places.

For `CCN(C(=O)C(C)C[S+](C)[O-])c1sc(-c2cccnc2)nc1Cl` (centres unmarked) [Compound 348], the pest or weed control at 200 ppm in assay [1] (green peach aphid) and in assay [2] (sweetpotato whitefly-crawler) was 80 to 100% throughout.
As for `CC(C(=O)N(C)c1sc(-c2cccnc2)nc1Cl)C(C)[S+](C)[O-]` (centres unmarked) [Compound 522], the pest or weed control at 200 ppm is 80 to 100% in assay [1] (Abbott's correction formula) and less than 80% in assay [2] (Abbott's correction formula).
In the same order, the values of `CCCCS/C(=N\CC)N(C)c1sc(-c2cccnc2)nc1C` [Compound 472] are 80 to 100% and less than 80%.
The like results for `CSCCC(=O)N(C)c1sc(-c2cncc(F)c2)nc1Br` [Compound 441] were, in that order, 80 to 100% and 80 to 100%.
Turning to `Cc1nc(-c2cccnc2)sc1N(C)C(=O)C1CCSC1` (centres unmarked) [Compound 206], the pest or weed control at 200 ppm in assay [1] (green peach aphid) and in assay [2] (sweetpotato whitefly-crawler) was 80 to 100% each time.
As for `Cc1nc(-c2cccnc2)sc1N(C)C(=O)C(C)(C)CS(C)(=O)=O` [Compound 97], the pest or weed control at 200 ppm in assay [1] (green peach aphid) and in assay [2] (sweetpotato whitefly-crawler) was 80 to 100% each time.
For `Cc1cc(C(=O)N(C)c2sc(-c3cccnc3)nc2Cl)ccn1` [Compound 407], the values for the pest or weed control at 200 ppm in assay [1] (green peach aphid) and in assay [2] (sweetpotato whitefly-crawler) were 80 to 100% and less than 80%, respectively.
On to `Cc1nc(-c2cccnc2)sc1NC(=O)CN(C)S(=O)(=O)/C=C/c1ccccc1` [Compound 435], for which the pest or weed control at 200 ppm in assay [1] (Abbott's correction formula) and in assay [2] (Abbott's correction formula) was less than 80% in each case.
`CSCC(C)C(=O)N(C(=O)OC(C)(C)C)c1sc(-c2cncc(S(C)(=O)=O)c2)nc1C` (centres unmarked) [Compound 157]: the pest or weed control at 200 ppm in assay [1] (green peach aphid) and in assay [2] (sweetpotato whitefly-crawler) was less than 80% throughout.
`CCc1nc(-c2cccnc2)sc1N(C)C(=O)C(C)(C)CSC` [Compound 49]: the results for the pest or weed control at 200 ppm in assay [1] (green peach aphid) and in assay [2] (sweetpotato whitefly-crawler) were less than 80% and 80 to 100%, respectively.
`Cc1nc(-c2cccnc2)sc1NC(=O)C(F)(F)C(F)(F)C(F)(F)C(F)(F)F` [Compound 428]: the pest or weed control at 200 ppm in assay [1] (Abbott's correction formula) and in assay [2] (Abbott's correction formula) was less than 80% throughout.
For the compound `CCCCOC(=O)N(C)c1sc(-c2cccnc2)nc1C` [Compound 483], the pest or weed control at 200 ppm in assay [1] (Abbott's correction formula) was less than 80%; in assay [2] (Abbott's correction formula), 80 to 100%.
Regarding `CSCC(C)(C)C(=O)Nc1sc(-c2cccnc2)nc1C(F)(F)F` [Compound 135], the results for the pest or weed control at 200 ppm in assay [1] (green peach aphid) and in assay [2] (sweetpotato whitefly-crawler) were 80 to 100% and less than 80%, respectively.
The like results for `CC(=O)c1ccc(C(=O)N(C)c2sc(-c3cccnc3)nc2Cl)s1` [Compound 351] were, in that order, less than 80% and less than 80%.
Consider `CCN(C(=O)CC(C)(C)SC)c1sc(-c2cncc(F)c2)nc1Cl` [Compound 447], for which the pest or weed control at 200 ppm in assay [1] (Abbott's correction formula) and in assay [2] (Abbott's correction formula) was 80 to 100% throughout.
With `CCN(C(=O)c1cnn(C(C)(C)C)c1C)c1sc(-c2cccnc2)nc1Cl` [Compound 578], the pest or weed control at 200 ppm in assay [1] (Abbott's correction formula) and in assay [2] (Abbott's correction formula) was 80 to 100% each time.
With `CC(=O)N1CCCC(C(=O)N(C)c2sc(-c3cccnc3)nc2C)C1` (centres unmarked) [Compound 412], the pest or weed control at 200 ppm in assay [1] (green peach aphid) and in assay [2] (sweetpotato whitefly-crawler) was 80 to 100% throughout.
Take `Cc1nc(-c2cccnc2)sc1N(CC1CC1)C(=O)OC(C)(C)C` [Compound 462]: the pest or weed control at 200 ppm in assay [1] (Abbott's correction formula) is 80 to 100%; in assay [2] (Abbott's correction formula), less than 80%.
`C=CCSCC(C)C(=O)N(C)c1sc(-c2cccnc2)nc1C` (centres unmarked) [Compound 138]: the pest or weed control at 200 ppm in assay [1] (green peach aphid) and in assay [2] (sweetpotato whitefly-crawler) was 80 to 100% in each case.
On to `CCCC(C)OC(=O)N(C)c1sc(-c2cccnc2)nc1C` (centres unmarked) [Compound 482], for which the pest or weed control at 200 ppm in assay [1] (Abbott's correction formula) and in assay [2] (Abbott's correction formula) was 80 to 100% each time.
For the compound `CCCN(C(=O)C(C)CSC)c1sc(-c2cccnc2)nc1C` (centres unmarked) [Compound 286], the pest or weed control at 200 ppm in assay [1] (green peach aphid) and in assay [2] (sweetpotato whitefly-crawler) was 80 to 100% in each case.
Turning to `COc1cncc(-c2nc(Cl)c(N(C)C(=O)CC[S+](C)[O-])s2)c1` (centres unmarked) [Compound 514], the pest or weed control at 200 ppm in assay [1] (Abbott's correction formula) and in assay [2] (Abbott's correction formula) was less than 80% throughout.
